pIC50: −log10 of the molar value.
system: IL-2 production, Jurkat cells; test: Inhibition of IL-2 production in PHA-activated Jurkat cells (ELISA); format: cell-based; conditions: Homo sapiens, 1% FBS, numeric values
Method: Jurkat cells were placed in a 96 well plate (0.5 million cells per well in 1% FBS medium), and then a test compound of this invention was added at different concentrations. After 10 minutes, the cells were activated with PHA (final concentration 2.5 μg/mL) and incubated for 20 hours at 37° C. under 5% CO2. The final volume was 200 μL. Following incubation, the cells were centrifuged, and the supernatants collected and stored at −70° C. prior to assaying for IL-2 production. A commercial ELISA kit (IL-2 Eli-pair, Diaclone Research, Besancon, France) was used to detect production of IL-2, from which dose response curves were obtained. The IC50 value was calculated as the concentration at which 50% of maximum IL-2 production after stimulation was inhibited versus a non-stimulation control.

Row | SMILES | pIC50
1 | Cc1ccc(Oc2ccccn2)cc1-c1cnc(NC(=O)c2c(F)cccc2F)cn1 [Compound 32, 2,6-difluoro-N-(5-(2-methyl-5-(pyridin-2-yloxy)phenyl)pyrazin-2-yl)benzamide] | 7.57
2 | Cc1ccc(Oc2ccccn2)cc1-c1ccc(NC(=O)c2cccc(F)c2C)nc1 [Compound 33, 3-fluoro-2-methyl-N-(5-(2-methyl-5-(pyridin-2-yloxy)phenyl)pyridin-2-yl)benzamide] | 7.05
3 | Cc1cc(Oc2cccnc2)ncc1-c1ccc(NC(=O)c2cccc(F)c2C)nc1 [Compound 34, 3-fluoro-2-methyl-N-(4′-methyl-6′-(pyridin-3-yloxy)-3,3′-bipyridin-6-yl)benzamide] | 7.85
4 | Cc1ccc(Oc2ccccn2)cc1-c1ccc(NC(=O)c2ccncc2F)nc1 [Compound 35, 3-fluoro-N-(5-(2-methyl-5-(pyridin-2-yloxy)phenyl)pyridin-2-yl)isonicotinamide] | 7.80
5 | O=C(Nc1cnc(-c2cc(Oc3ccccn3)ccc2Cl)cn1)c1c(F)cccc1F [Compound 36, N-(5-(2-chloro-5-(pyridin-2-yloxy)phenyl)pyrazin-2-yl)-2,6-difluorobenzamide] | 7.80
6 | COc1ccc(Oc2ccccn2)cc1-c1ccc(NC(=O)c2cccc(F)c2C)nc1 [Compound 38, 3-fluoro-N-(5-(2-methoxy-5-(pyridin-2-yloxy)phenyl)pyridin-2-yl)-2-methylbenzamide] | 7.68
7 | COc1ccc(Oc2ccccn2)cc1-c1cnc(NC(=O)c2c(F)cccc2F)cn1 [Compound 39, 2,6-difluoro-N-(5-(2-methoxy-5-(pyridin-2-yloxy)phenyl)pyrazin-2-yl)benzamide] | 7.60
8 | Cc1ccc(Oc2ccncc2)cc1-c1ccc(NC(=O)c2cccc(F)c2C)nc1 [Compound 40, 3-fluoro-2-methyl-N-(5-(2-methyl-5-(pyridin-4-yloxy)phenyl)pyridin-2-yl)benzamide] | 7.41
9 | Cc1c(F)cccc1C(=O)Nc1ccc(-c2cc(Oc3cccnc3)ccc2C(F)(F)F)cn1 [Compound 41, 3-fluoro-2-methyl-N-(5-(5-(pyridin-3-yloxy)-2-(trifluoromethyl)phenyl)pyridin-2-yl)benzamide] | 7.33
